Results reported in patent US10316028B2, “Orexin receptor antagonists” (Heptares Therapeutics Limited, priority 2012, dated 2019).

Molecular target: T1, human Orexin-2 receptor (Homo sapiens, UniProt O43614)
T1 construct: expressed in transfected cells; host or cells: HEK293 cells (transient transfection, Genejuice); membranes
T1 sequence (O43614 1-444): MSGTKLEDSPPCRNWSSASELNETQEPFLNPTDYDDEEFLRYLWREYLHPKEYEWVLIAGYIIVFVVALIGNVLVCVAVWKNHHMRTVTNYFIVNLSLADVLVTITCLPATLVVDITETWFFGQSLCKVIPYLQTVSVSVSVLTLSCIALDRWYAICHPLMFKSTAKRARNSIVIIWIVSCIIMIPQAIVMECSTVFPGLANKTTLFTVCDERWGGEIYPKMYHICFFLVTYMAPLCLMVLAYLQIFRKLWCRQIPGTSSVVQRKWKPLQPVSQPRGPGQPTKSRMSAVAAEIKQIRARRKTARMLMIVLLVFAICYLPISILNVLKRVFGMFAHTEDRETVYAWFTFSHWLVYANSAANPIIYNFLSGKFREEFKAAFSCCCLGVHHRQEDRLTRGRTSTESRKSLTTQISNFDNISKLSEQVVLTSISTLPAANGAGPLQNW
Assay: 3H-EMPA radioligand binding assay
Settings: 3H-EMPA displacement, membranes of HEK293 cells transfected with human Orexin-2 receptor; KI by Cheng-Prussoff; read-out: OX2 pKi ave (converted)
Procedure: cDNA encoding the human Orexin-2 receptor was transfected into HEK293 cells using the transfection reagent Genejuice (Novagen). Forty-eight hours after transfection, cells were harvested and washed twice with ice cold phosphate-buffered saline. The pellet was resuspended in ice-cold buffer containing 20 mM Tris-HCl, pH 7.4, 1 mM EDTA and homogenised with an Ultraturax for 30 s at maximum speed. After centrifugation at 48,000 g for 30 min at 4° C., the pellet was resuspended and spun again. The final pellet was resuspended and frozen at −80° C. before use. Protein concentration was determined using the BCA protein assay method.
^3H-EMPA Radioligand Binding Assay
At the end of the incubation, membranes were filtered onto a unifilter, a 96-well white microplate with bonded GF/B filter pre-incubated with 0.5% polyethylenimine, with a Tomtec cell harvester and washed 4 times with distilled water. […] Radioactivity on the filter was counted (1 min) on a microbeta counter after addition of 50 µL of scintillation fluid. […] IC50 values were derived from the inhibition curve and the equilibrium dissociation constant (KI) values were calculated using the Cheng-Prussoff equation.

| Compound | Ki [nM] |
| --- | --- |
| COc1ccc(N2C(=O)N(Cc3ccc4c(c3)OCO4)c3ccccc3S2(=O)=O)cc1OC [Example 1, 4-(1,3-benzodioxol-5-ylmethyl)-2-(3,4-dimethoxyphenyl)-2H-1,2,4-benzothiadiazin-3(4H)-one 1,1-dioxide] | 316 |
| COc1ccc(CN2C(=O)N(c3ccc(OC)c(OC)c3)S(=O)(=O)c3ccccc32)cc1F [Example 2, 2-(3,4-dimethoxyphenyl)-4-(3-fluoro-4-methoxybenzyl)-2H-1,2,4-benzothiadiazin-3(4H)-one 1,1-dioxide] | 141 |
| COc1cccc(CN2C(=O)N(c3cc(OC)cc(OC)c3)S(=O)(=O)c3ccccc32)c1 [Example 3, 2-(3,5-dimethoxyphenyl)-4-(3-methoxybenzyl)-2H-1,2,4-benzothiadiazin-3(4H)-one 1,1-dioxide] | 447 |
| COc1ccc(N2C(=O)N(Cc3cccc(C#N)c3)c3ccccc3S2(=O)=O)cc1OC [Example 4, 3-{[2-(3,4-dimethoxyphenyl)-1,1-dioxido-3-oxo-2,3-dihydro-4H-1,2,4-benzothiadiazin-4-yl]methyl}benzonitrile] | 355 |
| COc1ccc(N2C(=O)N(Cc3ccccc3)c3ccccc3S2(=O)=O)cc1OC [Example 5, 4-benzyl-2-(3,4-dimethoxyphenyl)-2H-1,2,4-benzothiadiazin-3(4H)-one 1,1-dioxide] | 89.1 |
| COc1cc(OC)cc(N2C(=O)N(Cc3cccc(C)c3)c3ccccc3S2(=O)=O)c1 [Example 6, 2-(3,5-dimethoxyphenyl)-4-(3-methylbenzyl)-2H-1,2,4-benzothiadiazin-3(4H)-one 1,1-dioxide] | 468 |
| COc1ccc(N2C(=O)N(Cc3ccc(C)cc3)c3ccccc3S2(=O)=O)cc1OC [Example 7, 2-(3,4-dimethoxyphenyl)-4-(4-methylbenzyl)-2H-1,2,4-benzothiadiazin-3(4H)-one 1,1-dioxide] | 37.2 |
| COc1ccc(N2C(=O)N(Cc3ccc(F)cc3)c3ccccc3S2(=O)=O)cc1OC [Example 8, 2-(3,4-dimethoxyphenyl)-4-(4-fluorobenzyl)-2H-1,2,4-benzothiadiazin-3(4H)-one 1,1-dioxide] | 56.2 |
| CSc1cccc(N2C(=O)N(Cc3cccc(Br)c3)c3ccccc3S2(=O)=O)c1 [Example 9, 4-(3-bromobenzyl)-2-[3-(methylsulfanyl)phenyl]-2H-1,2,4-benzothiadiazin-3(4H)-one 1,1-dioxide] | 35.5 |
| COc1cccc(N2C(=O)N(Cc3ccc(OC)c(F)c3)c3ccccc3S2(=O)=O)c1 [Example 10, 4-(3-fluoro-4-methoxybenzyl)-2-(3-methoxyphenyl)-2H-1,2,4-benzothiadiazin-3(4H)-one 1,1-dioxide] | 117 |
| CCc1cccc(N2C(=O)N(Cc3ccc(OC)c(F)c3)c3ccccc3S2(=O)=O)c1 [Example 11, 2-(3-ethylphenyl)-4-(3-fluoro-4-methoxybenzyl)-2H-1,2,4-benzothiadiazin-3(4H)-one 1,1-dioxide] | 47.9 |
| Cc1ccc(N2C(=O)N(Cc3cccc(F)c3)c3ccccc3S2(=O)=O)cc1Cl [Example 12, 4-(3-fluorobenzyl)-2-(3-chloro-4-methylphenyl)-2H-1,2,4-benzothiadiazin-3(4H)-one 1,1-dioxide] | 34.7 |
| COc1cc(OC)cc(N2C(=O)N(Cc3ccccc3F)c3ccccc3S2(=O)=O)c1 [Example 13, 2-(3,5-dimethoxyphenyl)-4-(2-fluorobenzyl)-2H-1,2,4-benzothiadiazin-3(4H)-one 1,1-dioxide] | 26.9 |
| COc1cccc(N2C(=O)N(Cc3ccccc3F)c3ccccc3S2(=O)=O)c1 [Example 14, 4-(2-fluorobenzyl)-2-(3-methoxyphenyl)-2H-1,2,4-benzothiadiazin-3(4H)-one 1,1-dioxide] | 200 |
| COc1cc(OC)cc(N2C(=O)N(Cc3ccccc3C)c3ccccc3S2(=O)=O)c1 [Example 15, 2-(3,5-dimethoxyphenyl)-4-(2-methylbenzyl)-2H-1,2,4-benzothiadiazin-3(4H)-one 1,1-dioxide] | 29.5 |
| COc1cc(OC)cc(N2C(=O)N(Cc3ccccc3Cl)c3ccccc3S2(=O)=O)c1 [Example 16, 4-(2-chlorobenzyl)-2-(3,5-dimethoxyphenyl)-2H-1,2,4-benzothiadiazin-3(4H)-one 1,1-dioxide] | 31.6 |
| COC(=O)c1ccc(OC)c(CN2C(=O)N(c3cc(OC)cc(OC)c3)S(=O)(=O)c3ccccc32)c1 [Example 17, methyl 3-{[2-(3,5-dimethoxyphenyl)-1,1-dioxido-3-oxo-2,3-dihydro-4H-1,2,4-benzothiadiazin-4-yl]methyl}-4-methoxybenzoate] | 13.5 |
| COc1ccc(N2C(=O)N(Cc3ccccc3C)c3ccccc3S2(=O)=O)cc1OC [Example 18, 2-(3,4-dimethoxyphenyl)-4-(2-methylbenzyl)-2H-1,2,4-benzothiadiazin-3(4H)-one 1,1-dioxide] | 14.8 |
| COc1ccc(N2C(=O)N(Cc3ccccc3Cl)c3ccccc3S2(=O)=O)cc1OC [Example 19, 4-(2-chlorobenzyl)-2-(3,4-dimethoxyphenyl)-2H-1,2,4-benzothiadiazin-3(4H)-one 1,1-dioxide] | 18.6 |
| COc1ccc(N2C(=O)N(Cc3c(F)cccc3Cl)c3ccccc3S2(=O)=O)cc1OC [Example 20, 4-(2-chloro-6-fluorobenzyl)-2-(3,4-dimethoxyphenyl)-2H-1,2,4-benzothiadiazin-3(4H)-one 1,1-dioxide] | 0.741 |
| COc1ccc(N2C(=O)N(Cc3ccc(F)cc3Cl)c3ccccc3S2(=O)=O)cc1OC [Example 21, 4-(2-chloro-4-fluorobenzyl)-2-(3,4-dimethoxyphenyl)-2H-1,2,4-benzothiadiazin-3(4H)-one 1,1-dioxide] | 23.4 |
| CSc1cccc(N2C(=O)N(Cc3ccccc3Cl)c3ccccc3S2(=O)=O)c1 [Example 22, 4-(2-chlorobenzyl)-2-[3-(methylsulfanyl)phenyl]-2H-1,2,4-benzothiadiazin-3(4H)-one 1,1-dioxide] | 23.4 |
| CSc1cccc(N2C(=O)N(Cc3ccccc3F)c3ccccc3S2(=O)=O)c1 [Example 23, 4-(2-fluorobenzyl)-2-[3-(methylsulfanyl)phenyl]-2H-1,2,4-benzothiadiazin-3(4H)-one 1,1-dioxide] | 20.9 |
| O=C1N(Cc2c(F)cccc2Cl)c2ccccc2S(=O)(=O)N1c1ccc(Cl)cc1 [Example 24, 4-(2-chloro-6-fluorobenzyl)-2-(4-chlorophenyl)-2H-1,2,4-benzothiadiazin-3(4H)-one 1,1-dioxide] | 7.08 |
| Cc1ccc(N2C(=O)N(Cc3c(F)cccc3Cl)c3ccccc3S2(=O)=O)cc1Cl [Example 25, 4-(2-chloro-6-fluorobenzyl)-2-(3-chloro-4-methylphenyl)-2H-1,2,4-benzothiadiazin-3(4H)-one 1,1-dioxide] | 2.51 |
| O=C1N(Cc2c(F)cccc2Cl)c2ccccc2S(=O)(=O)N1c1ccccc1 [Example 26, 4-(2-chloro-6-fluorobenzyl)-2-phenyl-2H-1,2,4-benzothiadiazin-3(4H)-one 1,1-dioxide] | 79.4 |
| Cc1cc(C)cc(N2C(=O)N(Cc3c(F)cccc3Cl)c3ccccc3S2(=O)=O)c1 [Example 27, 4-(2-chloro-6-fluorobenzyl)-2-(3,5-dimethylphenyl)-2H-1,2,4-benzothiadiazin-3(4H)-one 1,1-dioxide] | 0.631 |
